Laboratory results reported in patent US20140120060A1, “TREATMENT OF RHEUMATOID ARTHRITIS AND ASTHMA USING PI3 KINASE INHIBITORS” (INFINITY PHARMACEUTICALS, INC., priority 2012, published 2014).
Converted amounts (≈) assume the structure as drawn. “And” between values parts separate entries of the source, which are not always exact repeats. Identical values can stand only once. “Also recorded” adds a separate entry of the source. Like-named read-outs stand apart in the source and are kept apart here. Marks after values point to notes of the source that are not given here.

Experiments:
[1] = system: TL2/TLR6; assay: PAM2CSK4 induced cytokine production in PBMCs; format: cell-based, human
Procedure: These experiments were conducted using PBMCs.
PAM2CSK4 signals through TL2/TLR6, which plays a role in atherosclerosis, colitis, ischemic injury, e.g., cardiac events and stroke.

[2] = 13-week repeat-dose safety study in rats; conditions: both sexes, in vivo, oral; rat, Day 91, combined sexes, 25 mg/kg/day; read-out: mean AUC0-24 hr at the NOAEL
Procedure: The no observed adverse effect level (NOAEL) in the 13-week rat study was 25 mg/kg/day (150 mg/m^2/day) and the NOAEL in the 13-week monkey study was 5 mg/kg/day (60 mg/m^2/day). On Day 91, the mean AUC0-24 hr values for combined sexes at the NOAELs were 14150 ng*h/mL in the rat, and 4015 ng*h/mL in the monkey.

[3] = molecular target: hERG channel current (Homo sapiens, UniProt Q12809); assay: In vitro hERG assay; format: cell-based
[4] = system: ovalbumin-induced lung inflammation; assay: Ovalbumin-induced murine model of asthma
[5] = Pharmacokinetics in Beagle dogs; format: in vivo, dog; conditions: PO 5 mg/kg
[6] = In vivo rat micronucleus assay
[7] = Plasma protein binding, human plasma; format: in vitro ADME
From the text: […]. […] […].

[8] = In vitro genetic toxicity studies
[9] = molecular target: T1, PI3K δ (Homo sapiens, UniProt O00329); assay: In vitro PI3K δ inhibition (lipid kinase assay, TLC or HTRF); conditions: selectivity
[10] = Embryo/fetal developmental toxicity study in rabbits; conditions: female, rabbit, in vivo; pregnant rabbits, last day of dosing, 75 mg/kg/day; read-out: mean AUC0-24 hr at the NOAEL
[11] = system: LPS-induced pulmonary inflammation; assay: Murine model of LPS-induced lung inflammation; format: in vivo, mice; conditions: 3 mg/kg PO 60 minutes prior to LPS; 6 h after challenge
Procedure: Multiple parameters of pulmonary inflammation were determined 6 h after LPS challenge. Instillation of LPS induced significant influx of leukocytes, mostly neutrophils, into the airways, as assessed by counting the number of cells in the bronchoalveolar lavage (BAL) fluid.

[12] = molecular target: T1, PI3K δ; assay: Clinical study in healthy adult subjects: basophil activation (CD63 on CCR3+ basophils); format: in vivo; design: from tissue; host or cells: blood basophils (CCR3+) of healthy adult subjects
[13] = system: PG-PS model of arthritis; assay: Rat mono-articular PG-PS model; format: in vivo
Procedure: Animals are initially randomized into groups based on body weight but any with no ankle swelling following priming are eliminated from the groups to be reactivated. 10/group are retained into the primary treatment groups. The remaining animals are the baseline controls (Group 1).
Rats that have ankle inflammation are allowed to recover for two weeks, and then the swelling is reactivated (day 0) by a tail vein injection of 0.5 ml of 0.4 mg/ml PG-PS. Treatment with the test compounds is given QD the day prior to reactivation on day 0 and then daily.
Animals have caliper measures and paw volumes taken of ankles on day −3 (prior to reactivation on day 0 in the AM) and then on days 1, 2, 3, 4 (2 hrs post-dose) to determine if any anti-inflammatory effects are present in treated rats.
Scoring of Joints: PGPS ankles or knees are given scores of 0-5 for inflammation and bone resorption according to the following criteria: […]

[14] = system: Human T-cell; assay: Human T-cell proliferation; format: cell-based
[15] = system: developing or established type II collagen arthritis; assay: Rat collagen-induced arthritis model, alone or in combination with methotrexate or etanercept; format: in vivo; conditions: 2.5, 5 or 50 mg/kg daily oral, alone or in combination with MTX or etanercept
Procedure: Treatment was administered either alone or in combination with the reference compounds MTX, or etanercept. All rats were administered MTX, vehicle 2 (1% CMC in water), or vehicle 1 on days 0-20 in order to keep dose manipulations consistent for all groups. Animals were terminated on day 21. Efficacy evaluation was based on daily ankle caliper measurements, ankle diameter expressed as area under the curve (AUC), and terminal hind paw weights.

[16] = Pharmacokinetics in cynomolgus monkeys; format: in vivo, monkey
[17] = system: ovalbumin-induced pulmonary inflammation; assay: Rat ovalbumin allergic asthma model
[18] = system: hemodynamic and electrocardiographic parameters; assay: Cardiovascular study in instrumented cynomolgus monkey; format: in vivo
From the text: Four non-naive, male monkeys implanted with radiotelemetry transmitters were utilized during the conduct of this study.

[19] = monkey, in vivo, cynomolgus monkeys, IV 1 mg/kg
[20] = monkey, in vivo, cynomolgus monkeys, PO 5 mg/kg suspension

T1 sequence (O00329 whole entry): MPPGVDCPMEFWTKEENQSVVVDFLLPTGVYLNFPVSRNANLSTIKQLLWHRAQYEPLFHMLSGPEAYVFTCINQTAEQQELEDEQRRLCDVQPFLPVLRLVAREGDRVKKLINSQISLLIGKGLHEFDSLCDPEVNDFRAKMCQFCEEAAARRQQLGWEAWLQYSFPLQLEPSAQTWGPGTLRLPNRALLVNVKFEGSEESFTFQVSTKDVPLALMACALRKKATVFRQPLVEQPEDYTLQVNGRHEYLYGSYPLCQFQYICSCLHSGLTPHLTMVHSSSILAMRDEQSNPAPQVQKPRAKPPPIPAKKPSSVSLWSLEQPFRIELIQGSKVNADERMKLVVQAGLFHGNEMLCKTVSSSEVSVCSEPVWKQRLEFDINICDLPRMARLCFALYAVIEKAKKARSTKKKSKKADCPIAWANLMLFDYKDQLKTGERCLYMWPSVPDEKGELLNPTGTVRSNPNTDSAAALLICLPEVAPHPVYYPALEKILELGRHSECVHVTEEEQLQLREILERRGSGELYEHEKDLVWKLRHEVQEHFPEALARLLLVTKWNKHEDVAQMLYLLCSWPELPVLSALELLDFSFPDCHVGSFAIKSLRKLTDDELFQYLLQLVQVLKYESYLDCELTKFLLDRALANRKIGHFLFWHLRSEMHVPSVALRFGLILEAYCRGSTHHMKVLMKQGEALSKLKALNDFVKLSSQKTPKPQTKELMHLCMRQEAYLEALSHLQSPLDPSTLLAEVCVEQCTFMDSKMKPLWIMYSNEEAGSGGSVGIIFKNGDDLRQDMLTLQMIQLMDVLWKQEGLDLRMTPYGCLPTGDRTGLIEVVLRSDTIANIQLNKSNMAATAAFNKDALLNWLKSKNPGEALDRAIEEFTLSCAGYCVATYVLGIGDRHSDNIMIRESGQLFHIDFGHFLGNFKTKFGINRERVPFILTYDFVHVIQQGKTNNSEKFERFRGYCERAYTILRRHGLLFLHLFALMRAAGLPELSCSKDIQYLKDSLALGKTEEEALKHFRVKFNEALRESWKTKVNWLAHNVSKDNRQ
T1 sequence (P27986 whole entry partner): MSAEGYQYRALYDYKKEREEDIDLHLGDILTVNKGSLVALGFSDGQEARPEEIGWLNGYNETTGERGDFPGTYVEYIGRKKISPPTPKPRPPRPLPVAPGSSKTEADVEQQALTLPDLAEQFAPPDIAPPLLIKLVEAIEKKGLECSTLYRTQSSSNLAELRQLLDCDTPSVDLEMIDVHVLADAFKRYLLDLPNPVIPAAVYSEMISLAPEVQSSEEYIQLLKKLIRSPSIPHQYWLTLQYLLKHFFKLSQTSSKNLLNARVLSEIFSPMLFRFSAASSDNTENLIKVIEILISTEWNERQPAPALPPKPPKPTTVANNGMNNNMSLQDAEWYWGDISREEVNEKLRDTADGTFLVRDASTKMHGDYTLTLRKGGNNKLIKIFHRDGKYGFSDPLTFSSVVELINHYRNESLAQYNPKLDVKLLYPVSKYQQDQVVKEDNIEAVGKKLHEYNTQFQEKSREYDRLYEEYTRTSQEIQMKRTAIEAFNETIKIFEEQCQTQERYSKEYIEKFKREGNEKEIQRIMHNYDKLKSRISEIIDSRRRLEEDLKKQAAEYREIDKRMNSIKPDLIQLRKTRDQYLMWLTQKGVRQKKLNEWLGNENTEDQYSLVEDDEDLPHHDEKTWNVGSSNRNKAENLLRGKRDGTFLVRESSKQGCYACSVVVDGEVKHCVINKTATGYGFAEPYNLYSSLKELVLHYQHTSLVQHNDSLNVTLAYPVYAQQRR
Chain of hERG channel current (Q12809 whole entry): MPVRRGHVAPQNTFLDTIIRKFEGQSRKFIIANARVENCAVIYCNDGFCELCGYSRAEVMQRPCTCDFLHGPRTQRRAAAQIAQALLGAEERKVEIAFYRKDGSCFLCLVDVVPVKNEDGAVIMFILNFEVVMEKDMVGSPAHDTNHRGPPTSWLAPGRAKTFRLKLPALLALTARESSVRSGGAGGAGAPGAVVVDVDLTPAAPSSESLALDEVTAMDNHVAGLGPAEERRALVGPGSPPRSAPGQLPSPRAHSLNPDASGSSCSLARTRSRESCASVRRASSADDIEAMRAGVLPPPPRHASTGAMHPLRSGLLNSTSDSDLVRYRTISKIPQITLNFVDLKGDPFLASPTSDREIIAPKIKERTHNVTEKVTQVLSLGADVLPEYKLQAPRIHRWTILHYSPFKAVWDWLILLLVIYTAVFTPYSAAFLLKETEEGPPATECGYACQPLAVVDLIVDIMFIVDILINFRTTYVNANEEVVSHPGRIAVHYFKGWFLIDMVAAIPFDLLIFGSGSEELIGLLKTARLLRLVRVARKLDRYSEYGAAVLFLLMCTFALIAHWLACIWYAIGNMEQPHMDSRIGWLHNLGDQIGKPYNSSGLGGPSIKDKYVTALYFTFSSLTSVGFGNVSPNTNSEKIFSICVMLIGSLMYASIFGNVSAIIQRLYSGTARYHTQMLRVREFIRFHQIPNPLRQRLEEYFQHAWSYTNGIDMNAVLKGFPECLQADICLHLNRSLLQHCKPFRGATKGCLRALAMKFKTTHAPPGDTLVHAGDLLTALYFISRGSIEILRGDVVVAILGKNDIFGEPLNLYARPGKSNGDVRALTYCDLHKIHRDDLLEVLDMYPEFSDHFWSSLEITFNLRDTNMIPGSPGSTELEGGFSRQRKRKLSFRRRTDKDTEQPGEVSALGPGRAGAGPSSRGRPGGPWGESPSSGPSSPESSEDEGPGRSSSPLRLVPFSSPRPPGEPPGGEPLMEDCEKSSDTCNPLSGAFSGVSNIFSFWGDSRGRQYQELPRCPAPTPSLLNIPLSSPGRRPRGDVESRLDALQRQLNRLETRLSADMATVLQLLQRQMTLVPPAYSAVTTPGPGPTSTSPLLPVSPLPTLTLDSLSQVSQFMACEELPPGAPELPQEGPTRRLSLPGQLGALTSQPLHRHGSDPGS

C[C@H](Nc1ncnc2[nH]cnc12)c1cc2cccc(Cl)c2c(=O)n1-c1ccccc1 [Compound 292]
PAM2CSK4 induced IL-1 production [1]: Inhibited
PAM2CSK4 induced IL-6 production [1]: Inhibited
PAM2CSK4 induced IL-8 production [1]: Inhibited
PAM2CSK4 induced TNF-α production [1]: Inhibited
AUC(0-t) [2]: 14200 ng·h/mL
Hill coefficient (hERG) [3]: 1.3
IC50 on hERG potassium current [3]: 20.8 µg/mL (≈ 49.9 µM)
leukocyte migration into the bronchoalveolar space ([4]; FIG. 15): inhibited
eosinophil influx into the airway space (BAL fluid) ([4]; all doses tested, 0.03 to 10 mg/kg PO): significantly blocked
lymphocyte and monocyte accumulation in BAL fluid ([4]; ovalbumin induced): reduced
Foral ([5]; calculated using 0.5 mg/kg IV dose as reference and AUC0-last): 97^g,i %
Foral ([5]; calculated using 1 mg/kg IV dose as reference and AUC0-last): 40% and 40^h,i %
adverse effect in micronucleus assay [6]: no direct adverse effect
protein bound in human plasma [7]: 95%
protein bound in human plasma ([7]; 100 μM (41700 ng/mL)): 85.9%
genetic toxicity [8]: no genetic toxicity
lower dose inhibiting PI3K-δ compared to PI3K-γ, PI3K-β or PI3K-α [9]: at least 10 fold
AUC(0-t) [10]: 66200 ng·h/mL
LPS-induced total leukocyte and neutrophil influx in BAL fluid [11]: inhibited
Emax (reduction of basophil activation vs plasma concentration) ([12]; FIG. 21): 85%
basophil activation ([12]; single and multiple doses, all dose levels, maximum at 1 hr post dose): dose-dependent reduction
inflammation when reactivated with PG-PS ([13]; FIG. 14A): dose-dependently controlled inflammation
joint pathology in PG-PS model ([13]; FIG. 14B): dose-dependently improved joint pathology
EC50 [14]: 9.5 nM
effects on parameters of developing and established type II collagen arthritis [15]: beneficial effects
tolerability [15]: well tolerated
Foral ([16]; cynomolgus monkeys, PO 5 mg/kg suspension): 40%
AUC(0-inf) [16, 19]: 2380 ng·h/mL
AUC(0-t) [16, 19]: 2360 ng·h/mL
Tmax [16, 19]: 0.083 h
clearance [16, 19]: 7.17 mL/min/kg
half-life ([16]; monkey, in vivo, cynomolgus monkeys, IV 1 mg/kg, read-out: T1/2 (converted)): 5 h
Vd ([16]; monkey, in vivo, cynomolgus monkeys, IV 1 mg/kg, read-out: Vss): 1.27 L/kg
AUC(0-inf) [16, 20]: 4680 ng·h/mL
AUC(0-t) [16, 20]: 4600 ng·h/mL
Cmax [16, 20]: 1330 ng/mL
Tmax [16, 20]: 1.5 h
half-life ([16]; monkey, in vivo, cynomolgus monkeys, PO 5 mg/kg suspension, read-out: T1/2 (converted)): 5.4 h
half-life ([16]; monkey, in vivo, monkeys, read-out: half-life (converted)): 5 h
levels of TNF-α, KC/GRO, IL-13 and IL-5 in the BAL ([17]; 10 mg/kg PO): inhibited; also recorded: significantly suppressed
neutrophils and eosinophils in the BAL ([17]; 1 and 10 mg/kg PO, 48 hours after re-challenge): significantly reduced
leukocyte migration into the bronchoalveolar space ([17]; FIG. 16): inhibited
hemodynamic or electrocardiographic parameters ([18]; male cynomolgus monkeys, single oral dose of 5, 30 and 150 mg/kg): No Compound 292-related effects
waveform abnormalities or arrhythmias ([18]; up to 150 mg/kg): no waveform abnormalities or arrhythmias
